Test results published in patent US20130315843A1, “COMPOSITION FOR REDUCTION OF TRPA1 AND TRPV1 SENSATIONS” (priority 2012, published 2013).
Entries after “also recorded” stand apart in the source; their conditions may differ.

What follows are compounds tested against T1, human TRPA1 (Homo sapiens, UniProt O75762) (assay: FLIPR Ca2+ assay, reduction of hydrogen peroxide activation of TRPA1). Settings: 100 μM antagonist vs 500 μM hydrogen peroxide.
T1 sequence (O75762 whole entry): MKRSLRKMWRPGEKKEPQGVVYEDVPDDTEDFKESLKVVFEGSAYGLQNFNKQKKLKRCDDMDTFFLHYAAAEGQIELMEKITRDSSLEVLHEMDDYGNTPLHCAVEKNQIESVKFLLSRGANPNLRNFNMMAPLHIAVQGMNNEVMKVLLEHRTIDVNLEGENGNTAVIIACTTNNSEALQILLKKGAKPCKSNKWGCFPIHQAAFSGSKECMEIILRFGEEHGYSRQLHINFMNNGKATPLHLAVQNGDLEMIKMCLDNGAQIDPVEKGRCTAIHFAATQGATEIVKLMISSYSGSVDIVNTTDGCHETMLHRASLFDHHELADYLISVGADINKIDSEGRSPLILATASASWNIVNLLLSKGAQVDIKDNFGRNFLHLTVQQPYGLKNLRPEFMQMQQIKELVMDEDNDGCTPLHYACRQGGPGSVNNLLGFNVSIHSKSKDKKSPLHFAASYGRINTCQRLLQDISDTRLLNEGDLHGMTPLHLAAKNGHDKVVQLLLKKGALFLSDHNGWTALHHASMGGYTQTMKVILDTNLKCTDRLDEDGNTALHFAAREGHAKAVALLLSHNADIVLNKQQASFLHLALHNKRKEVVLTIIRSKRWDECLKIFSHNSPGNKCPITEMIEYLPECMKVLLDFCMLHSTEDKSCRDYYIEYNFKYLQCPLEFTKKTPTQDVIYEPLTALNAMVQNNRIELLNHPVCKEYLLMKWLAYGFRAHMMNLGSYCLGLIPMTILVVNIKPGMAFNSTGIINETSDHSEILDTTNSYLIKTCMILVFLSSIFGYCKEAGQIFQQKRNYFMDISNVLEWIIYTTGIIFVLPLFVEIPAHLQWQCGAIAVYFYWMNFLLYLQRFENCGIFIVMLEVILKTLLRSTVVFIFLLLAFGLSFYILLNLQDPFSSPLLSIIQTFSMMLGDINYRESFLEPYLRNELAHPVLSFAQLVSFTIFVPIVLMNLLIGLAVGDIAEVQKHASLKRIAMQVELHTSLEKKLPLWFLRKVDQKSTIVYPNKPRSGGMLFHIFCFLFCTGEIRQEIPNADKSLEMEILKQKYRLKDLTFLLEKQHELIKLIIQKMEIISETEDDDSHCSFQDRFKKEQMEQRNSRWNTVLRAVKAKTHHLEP
Format: cell-based
Set-up: expressed in transfected cells
Procedure: After centrifugation, a pellet of cells was formed in the bottom of the tube separating them from the supernatant solution.
The pelleted cells were re-suspended in 10 ml assay buffer and 90 μl aliquots (˜50,000 cells) per well delivered to a 96-well assay plate containing 10 μl of test compounds ([…]) or buffer control and incubated at room temperature for 30 minutes.
In the case of `CCCCCCCCCCCCCCCCCC(=O)OCC(O)CO` (racemic) [1-stearoyl-rac-glycerol], the “Block of hydrogen peroxide activation of TRPA1” value is reported as “Block menthol, H2O2, and AITC on TRPA1”. `CC(S)C(C)S` (stereo not drawn) [2,3-butanedithiol] was tested, and the “Block of hydrogen peroxide activation of TRPA1” value was “Block menthol, H2O2, and AITC on TRPA1”. With `SCCc1cnccn1` [2-Pyrazinyl ethanethiol] the “Block of hydrogen peroxide activation of TRPA1” value was “Block menthol, H2O2, and AITC on TRPA1”. In the case of `CCc1ccccc1S` [2-ethylbenzenethiol], the “Block of hydrogen peroxide activation of TRPA1” value is reported as “Block menthol, H2O2, and AITC on TRPA1”. `CCOC(=O)CC(C)=O` [ethyl acetoacetate] was tested, and the “Block of hydrogen peroxide activation of TRPA1” value was “Block both H2O2 and AITC on TRPA1”. `CC(C)OC(=O)C(C)C` [isobutyric acid isopropyl ester] was tested, and the “Block of hydrogen peroxide activation of TRPA1” value was “Block both H2O2 and AITC on TRPA1”. In the case of `O=C(Oc1ccccc1)c1ccccc1O` [phenyl salicylate], the “Block of hydrogen peroxide activation of TRPA1” value is reported as “Block both H2O2 and AITC on TRPA1”.

Same assay, conditions: 400 μM antagonist vs 500 μM hydrogen peroxide
For `COc1ccccc1C=CC=O` [o-Methoxycinnamaldehyde], the “Block of hydrogen peroxide activation of TRPA1” value was “Block both H2O2 and AITC on TRPA1”. In the case of `CCCC/C=C/C=C/C=O` [trans, trans-2,4-Nonadienal], the “Block of hydrogen peroxide activation of TRPA1” value is reported as “Block both H2O2 and AITC on TRPA1”.

Same assay, conditions: antagonist 400 μM against 200 μM hydrogen peroxide; read-out: % Reduction of Hydrogen Peroxide TRPA1 Activation
`COc1ccccc1C=CC=O` [o-Methoxycinnamaldehyde] gave an inhibition at 400 µM of 51%. Compound `CCCC/C=C/C=C/C=O` [trans, trans-2,4-Nonadienal] has an inhibition at 400 µM of 67%.

Same assay, conditions: compound 100 μM against 200 μM hydrogen peroxide; Sets 1-4
With `CCCCCCCCCCCCCCCCCC(=O)OCC(O)CO` (racemic) [1-stearoyl-rac-glycerol] the “Average Ca++ Counts” value was 3131.0 Counts. For `CC(S)C(C)S` (stereo not drawn) [2,3-butanedithiol], the “Average Ca++ Counts” value was 1280.5 Counts. In the case of `CCc1ccccc1S` [2-ethylbenzenethiol], the “Average Ca++ Counts” value is reported as 4808.5 Counts. With `CCOC(=O)CC(C)=O` [ethyl acetoacetate] the “Average Ca++ Counts” value was 3314.5 Counts. With `CC(C)OC(=O)C(C)C` [isobutyric acid isopropyl ester] the “Average Ca++ Counts” value was 3392.5 Counts. With `O=C(Oc1ccccc1)c1ccccc1O` [phenyl salicylate] the “Average Ca++ Counts” value was 2893.5 Counts.

Same assay, conditions: compound 100 μM against 200 μM hydrogen peroxide; Sets 1-4; read-out: % Reduction of Hydrogen Peroxide TRPA1 Activation
`CCCCCCCCCCCCCCCCCC(=O)OCC(O)CO` (racemic) [1-stearoyl-rac-glycerol] was tested, and the inhibition at 100 µM was 55.5%. Work on `CC(S)C(C)S` (stereo not drawn) [2,3-butanedithiol] yielded an inhibition at 100 µM of 87.9%. Work on `CCc1ccccc1S` [2-ethylbenzenethiol] yielded an inhibition at 100 µM of 54.6%. `CCOC(=O)CC(C)=O` [ethyl acetoacetate] gave an inhibition at 100 µM of 43.6%. For `CC(C)OC(=O)C(C)C` [isobutyric acid isopropyl ester], the inhibition at 100 µM was 51.8%. In the case of `O=C(Oc1ccccc1)c1ccccc1O` [phenyl salicylate], the inhibition at 100 µM is reported as 72.7%.

These compounds were tested against T1, human TRPA1 (assay: FLIPR Ca2+ assay, reduction of L-Menthol activation of TRPA1). Settings: 100 μM antagonist vs 1 mM L-Menthol.
Procedure: In order to determine whether TRPA1 is activated, the intracellular calcium ion (Ca^2+) level from transfected cells with the TRPA1 receptor gene was measured. HEK-2 cells stably transfected with human TRPA1 were grown in 15 ml growth medium [high glucose DMEM (Dulbecco's Modification of Eagle's Medium) supplemented with 10% FBS (fetal bovine serum), 100 μg/ml Penicillin/streptomycin, 100 μg/ml G418] in a 75 Cm^2 flask for 3 days at 37° C. in a mammalian cell culture incubator set at 5% CO2. Cells were detached with addition of 10 ml of PBS (phosphate buffered saline) by hand shaking gently and transferred to a 50 ml tube and centrifuged at 850 rpm for 3 minutes to remove PBS. After centrifugation, a pellet of cells was formed in the bottom of the tube separating them from the supernatant solution. […] Fluo-4 is a fluorescent dye used for quantifying cellular Ca^2+ concentrations in the 100 nM to 1 μM range.
The pelleted cells were re-suspended in 10 ml assay buffer and 90 μl aliquots (˜50,000 cells) per well delivered to a 96-well assay plate containing 10 μl of test compounds (1 mM in assay buffer, final concentration 100 μM) or buffer control and incubated at room temperature for 30 minutes. After 30 minutes, the plate was placed into a fluorometric imaging plate reader (FLIPR384 from Molecular Devices) and basal fluorescence recorded (excitation wave length 488 nm and emission wave length 510 nm). Then 20 μl of the molecule being tested as a TRPA1 antagonist was added and fluorescence recorded. For determining the direct effect of test compounds on TRPA1, fluorescence was measured immediately after addition of each compound.
To determine if a compound was an antagonist or a desensitizer the direct effect of a test compound was determined. For determining the direct effect of test compounds on TRPA1 receptor activation, 100 μl aliquots (˜50,000 cells) of cells prepared as described above were delivered to a 96-well assay plate and basal fluorescence recorded as noted above. Then 20 μl of the compound being tested as a TRPA1 activator was added and fluorescence recorded. If any increase in fluorescence over background was noted, then the compound was considered an agonist.
With `CCCCCCCCCCCCCCCCCC(=O)OCC(O)CO` (racemic) [1-stearoyl-rac-glycerol] the “Block of L-Menthol activation of TRPA1” value was “Block menthol, H2O2, and AITC on TRPA1”. With `CC(S)C(C)S` (stereo not drawn) [2,3-butanedithiol] the “Block of L-Menthol activation of TRPA1” value was “Block menthol, H2O2, and AITC on TRPA1”. For `Cc1cc(S)c(C)o1` [2,5-dimethylfuran-3-thiol], the “Block of L-Menthol activation of TRPA1” value was “BLOCK BOTH MENTHOL AND AITC ON TRPA1”. With `SCCc1cnccn1` [2-Pyrazinyl ethanethiol] the “Block of L-Menthol activation of TRPA1” value was “Block menthol, H2O2, and AITC on TRPA1”. In the case of `CCc1ccccc1S` [2-ethylbenzenethiol], the “Block of L-Menthol activation of TRPA1” value is reported as “Block menthol, H2O2, and AITC on TRPA1”. For `Cc1occc1S` [2-methyl-3-furanthiol], the “Block of L-Menthol activation of TRPA1” value was “BLOCK BOTH MENTHOL AND AITC ON TRPA1; also recorded: BLOCK ONLY MENTHOL/TRPA1”. `CSCCCN=C=S` [3-(methylthio)propyl isothiocyanate] was tested, and the “Block of L-Menthol activation of TRPA1” value was “BLOCK BOTH MENTHOL AND AITC ON TRPA1”. For `O=C(O)CCC(=O)O` [succinic acid], the “Block of L-Menthol activation of TRPA1” value was “BLOCK BOTH MENTHOL AND AITC ON TRPA1”. For zinc gluconate, the “Block of L-Menthol activation of TRPA1” value was “BLOCK BOTH MENTHOL AND AITC ON TRPA1”.

Each compound was assayed against T1, human TRPA1 (assay: FLIPR Ca2+ assay, block of AITC activation of TRPA1). Settings: 100 μM antagonist.
Format: cell-based
Set-up: expressed in transfected cells
Procedure: Intracellular Ca^++ levels were measured using cell based assays as described for EXAMPLES 1, 2, and 3.
In the case of `CCCCCCCCCCCCCCCCCC(=O)OCC(O)CO` (racemic) [1-stearoyl-rac-glycerol], the “Block of AITC activation of TRPA1” value is reported as “Block menthol, H2O2, and AITC on TRPA1”. For `CC(S)C(C)S` (stereo not drawn) [2,3-butanedithiol], the “Block of AITC activation of TRPA1” value was “Block menthol, H2O2, and AITC on TRPA1”. `Cc1cc(S)c(C)o1` [2,5-dimethylfuran-3-thiol] was tested, and the “Block of AITC activation of TRPA1” value was “BLOCK BOTH MENTHOL AND AITC ON TRPA1”. With `SCCc1cnccn1` [2-Pyrazinyl ethanethiol] the “Block of AITC activation of TRPA1” value was “Block menthol, H2O2, and AITC on TRPA1”. `CCc1ccccc1S` [2-ethylbenzenethiol] was tested, and the “Block of AITC activation of TRPA1” value was “Block menthol, H2O2, and AITC on TRPA1”. With `Cc1occc1S` [2-methyl-3-furanthiol] the “Block of AITC activation of TRPA1” value was “BLOCK BOTH MENTHOL AND AITC ON TRPA1”. In the case of `CSCCCN=C=S` [3-(methylthio)propyl isothiocyanate], the “Block of AITC activation of TRPA1” value is reported as “BLOCK BOTH MENTHOL AND AITC ON TRPA1”. For `CCOC(=O)CC(C)=O` [ethyl acetoacetate], the “Block of AITC activation of TRPA1” value was “Block both H2O2 and AITC on TRPA1”. With `CC(C)OC(=O)C(C)C` [isobutyric acid isopropyl ester] the “Block of AITC activation of TRPA1” value was “Block both H2O2 and AITC on TRPA1”. In the case of `O=C(Oc1ccccc1)c1ccccc1O` [phenyl salicylate], the “Block of AITC activation of TRPA1” value is reported as “Block both H2O2 and AITC on TRPA1”. For `O=C(O)CCC(=O)O` [succinic acid], the “Block of AITC activation of TRPA1” value was “BLOCK BOTH MENTHOL AND AITC ON TRPA1”. With zinc gluconate the “Block of AITC activation of TRPA1” value was “BLOCK BOTH MENTHOL AND AITC ON TRPA1”.

Same assay, conditions: 400 μM antagonist
In the case of `COc1ccccc1C=CC=O` [o-Methoxycinnamaldehyde], the “Block of AITC activation of TRPA1” value is reported as “Block both H2O2 and AITC on TRPA1”. With `CCCC/C=C/C=C/C=O` [trans, trans-2,4-Nonadienal] the “Block of AITC activation of TRPA1” value was “Block both H2O2 and AITC on TRPA1”.

What follows are compounds tested against human TRPV1 (Homo sapiens, UniProt Q8NER1) (assay: FLIPR Ca2+ assay, reduction of L-Menthol activation of TRPV1). Settings: antagonist 100 μM against 1 mM L-Menthol.
human TRPV1, sequence (Q8NER1 whole entry): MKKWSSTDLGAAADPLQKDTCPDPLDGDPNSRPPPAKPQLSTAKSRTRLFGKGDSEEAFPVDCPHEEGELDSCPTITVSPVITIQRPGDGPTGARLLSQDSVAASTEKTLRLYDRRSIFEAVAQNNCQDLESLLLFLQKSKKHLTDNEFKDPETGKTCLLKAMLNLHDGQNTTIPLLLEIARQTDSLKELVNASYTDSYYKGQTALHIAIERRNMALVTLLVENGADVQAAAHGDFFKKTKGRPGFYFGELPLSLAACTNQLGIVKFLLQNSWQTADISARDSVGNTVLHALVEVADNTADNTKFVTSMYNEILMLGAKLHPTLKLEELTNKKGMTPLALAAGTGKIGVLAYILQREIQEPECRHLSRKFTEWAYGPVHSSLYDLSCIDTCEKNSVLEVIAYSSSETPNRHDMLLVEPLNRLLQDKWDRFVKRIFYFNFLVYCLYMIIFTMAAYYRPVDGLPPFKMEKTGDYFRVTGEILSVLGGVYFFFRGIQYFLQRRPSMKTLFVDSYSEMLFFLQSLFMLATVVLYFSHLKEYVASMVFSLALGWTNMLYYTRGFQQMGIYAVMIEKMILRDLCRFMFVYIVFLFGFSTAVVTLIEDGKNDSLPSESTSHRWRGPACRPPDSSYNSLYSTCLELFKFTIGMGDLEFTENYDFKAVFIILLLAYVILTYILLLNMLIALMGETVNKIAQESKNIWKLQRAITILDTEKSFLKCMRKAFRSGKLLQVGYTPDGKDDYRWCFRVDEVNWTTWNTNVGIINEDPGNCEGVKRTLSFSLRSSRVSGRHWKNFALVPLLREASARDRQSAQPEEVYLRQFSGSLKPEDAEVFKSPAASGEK
`CCCCCCCCCCCCCCCCCC(=O)OCC(O)CO` (racemic) [1-stearoyl-rac-glycerol] was tested, and the “Average Ca2+ Counts” value was 4708.0 Counts. In the case of `CC(S)C(C)S` (stereo not drawn) [2,3-butanedithiol], the “Average Ca2+ Counts” value is reported as 586.0 Counts. For `Cc1cc(S)c(C)o1` [2,5-dimethylfuran-3-thiol], the “Average Ca2+ Counts” value was 1443.0 Counts. With `Cc1occc1S` [2-methyl-3-furanthiol] the “Average Ca2+ Counts” value was 2835.5 Counts. In the case of `CSCCCN=C=S` [3-(methylthio)propyl isothiocyanate], the “Average Ca2+ Counts” value is reported as 1426.7 Counts. For `O=C(O)CCC(=O)O` [succinic acid], the “Average Ca2+ Counts” value was 1045.0 Counts. In the case of zinc gluconate, the “% Reduction of L-Menthol TRPV1 Activation” value is reported as 38.1% and the “Average Ca2+ Counts” value is reported as 3963.5 Counts.

Same assay, conditions: read-out: % Reduction of L-Menthol TRPV1 Activation
With `CCCCCCCCCCCCCCCCCC(=O)OCC(O)CO` (racemic) [1-stearoyl-rac-glycerol] the inhibition at 100 µM was 26.4%. In the case of `CC(S)C(C)S` (stereo not drawn) [2,3-butanedithiol], the inhibition at 100 µM is reported as 64.8%. Work on `Cc1cc(S)c(C)o1` [2,5-dimethylfuran-3-thiol] yielded an inhibition at 100 µM of 25.2%. In the case of `Cc1occc1S` [2-methyl-3-furanthiol], the inhibition at 100 µM is reported as 38.9%. Compound `CSCCCN=C=S` [3-(methylthio)propyl isothiocyanate] has an inhibition at 100 µM of 25.9%. In the case of `O=C(O)CCC(=O)O` [succinic acid], the inhibition at 100 µM is reported as 43.6%.
